US8946436B2, “Oxazolidinone compounds and their uses in preparation of antibiotics” (Sichuan Gooddoctor Pharmaceutical Group Co., Ltd., priority 2011, dated 2015)
≈ marks a conversion by molar mass, not a printed value. Like-named read-outs stand apart in the source and are kept apart here.

What was measured:
E. faecalis = assay: In vitro antibacterial activity (MIC), E. faecalis; assay type: cell-based; details: E. faecalis (7 strains)
Description: (§1) The test strain was inoculated into the liquid medium and cultured at 37° C. for 16-18 h. The culture liquid and MH medium were put into two blank wells of a 96-well plate, respectively. Then, the absorptions thereof were measured by a Microplate reader. The difference between the absorption values of the culture liquid and MH medium is the adsorption of the bacteria. The concentration of the culture liquid can be calculated according to the formula of 1OD=50 million CFU/mL. The culture liquid was diluted with the MH bouillon culture medium to 5000 CFU/mL for further use.
(§2) Compounds 12a, 13 and 14 were dissolved in DMSO to 1 mg/mL, and then filtered with a 0.22 μm filter to obtain the compound solutions. And then they were gradually diluted to a desired concentration (10× final concentration) with the liquid medium, so as to obtain a series of dilutions. The final concentration grade of the dilutions of each tested compound consists of 14 concentrations, which includes: 0.03125 μg/mL, […], 0.125 μg/mL, 0.25 μg/mL, […], 1 μg/mL, 2 μg/mL, 4 μg/mL, 8 μg/mL, 16 μg/mL, 32 μg/mL, 64 μg/mL, 128 μg/mL and 256 μg/mL.
(§3) 10 μL of each of the compound dilutions above was added into a well of a 96-well plate. 90 μL of the culture liquid (5000 CFU/mL) was added into each of the wells, respectively, mixed with the dilutions to render the tested compound concentration to the final concentration. The resulted mixture was incubated at 37° C. for 16-18 h, and then the OD630 thereof was measured. A culture liquid free of the tested compounds is used as a blank control, and three parallel tests with the same concentration of each compound were performed. The minimum inhibitory concentration (MIC) of each compound on the standard strain of Staphylococcus Aureus and other test strains was determined. Specifically, among the culture liquid contained in the wells of the micro-plate, the first three lowest concentrations under which growth of the test strains could be observed were chose for further evaluation of the MIC. A culture liquid free of tested compounds was used as a blank control. Each of the culture liquids was homogenized independently, and then was diluted with a sterile saline. Each of the diluted culture liquids was plated onto a MH bouillon plate and incubated at 37° C. for 20 h in incubator. After the incubation, the number of the colonies on each plate was counted. As compared with the blank control group, the lowest concentration of each of the test compound groups, at which 80% reduction in the colony number of the strains was achieved, was recorded as the MIC.

L-02 = assay: Cytotoxicity experiment (MTT), L-02; assay type: cell-based; details: L-02 normal cells
Description: (§4) (1) Inoculating cells: Experimental cells in the growth of logarithmic phase were collected and suspended. The cell concentration of the suspension was adjusted so that they could be inoculated into the wells of 96-well micro plate at a density between 10^3-10^4 cells per well (200 μl per well). (2) Culturing cells: The cells were cultured at normal conditions for 3 days and then exposed to 50 uM compounds for test. (3) Coloring reaction: At 24 h, 48 h and 72 h after the cells being exposed to the compounds for test, 200 μl culture medium containing 20 μl MTT solution (5 mg/ml) was added into each well, and the well was further incubated at 37° C. for 2 hours to terminate the incubation. After the incubation, the supernatants were removed from the wells. In the event there were suspended cells in the wells, centrifugation should be performed before removal of supernatant from the wells. After the removal, 150 μl DMSO was added to each well and mixed thoroughly by agitation for 10 mins to fully dissolve crystals. (4) Ascertainment of colorimetry: The absorbance value at 490 nm of each well was determined by Enzyme-linked immunosorbent Monitor. The growth curve of the experimental cells was plotted by taking time as x-coordinate and absorbance value as y-coordinate. In addition, an inhibition ratio could be calculated in accordance with the following formula: Inhibition ratio=(absorbance value of control group-absorbance value of administering group)/absorbance value of control group×100%.

S. aureus = assay: In vitro antibacterial activity (MIC), S. aureus; assay type: cell-based, Staphylococcus Aureus; details: for MIC: S. aureus (12 strains)
Description: Strains: strain ATCC25923 is available from the American Type Culture Collection, and is used as a standard strain of Staphylococcus Aureus;
Liquid medium: MH bouillon culture medium, a product of BD Company, United States of American;
Tested Compounds: compounds 12a, 13 and 14 prepared according to the methods above, and Linezolid purchased from Pfizer.
as §1, §2, §3

HEK-293 = assay: Cytotoxicity experiment (MTT), HEK-293; assay type: cell-based; details: HEK-293 normal cells
Description: as §4

Which MIC (E. faecalis) does the source give for `CC(=O)NC[C@H]1CN(c2ccc(N3CCOCC3)c(F)c2)C(=O)O1` [Linezolid, reference compound] here?
Its MIC is 4 to 32 µg/mL.

What about the Inhibition ratio (L-02; 50 uM, 48 h) of the same compound?
Its Inhibition ratio is over 50%.

And the MIC (S. aureus)?
The MIC was 4 to 32 µg/mL.

What about the Inhibition ratio (HEK-293; 50 uM, 48 h) of the same compound?
The Inhibition ratio was over 50%.

Which results are given for `CC(=O)NC[C@H]1CN(c2ccc(-n3cc(-c4ccccn4)cn3)c(F)c2)C(=O)O1` [Compound 13f, (S)-N-((3-(3-fluoro-4-(4-(pyridin-2-yl)-1H-pyrazol-1-yl)phenyl)-2-oxooxazolidin-5-yl)methyl)acetamide]?
MIC (E. faecalis; Enterococcus faecalis, read-out: MIC): 0.5 to 2 µg/mL (≈ 1.26 to 5.06 µM); cytotoxicity at 50 µM (L-02; Homo sapiens, L02, 48 h, read-out: Inhibition ratio): 2.74%; MIC (S. aureus; Staphylococcus aureus, read-out: MIC): 0.25 to 2 µg/mL (≈ 0.632 to 5.06 µM); activity ranking among test compounds (S. aureus; Table 2: S. aureus, S. pneumoniae, S. agalactiae and E. faecalis): most optimum activity; cytotoxicity at 50 µM (HEK-293; Homo sapiens, HEK293, 48 h, read-out: Inhibition ratio): 2.7%
